From PubChem BioAssay (NCI)
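Five concentrations, 48 hours, 96-well plates. GI50 is the concentration that inhibits growth by half. TGI: total growth inhibition.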

Tests used:
Assay in all cases: NCI tumour cell line growth inhibition, 48 h
MCF7 breast = tested on: MCF7 breast
SR leukemia = tested on: SR leukemia
CAKI-1 renal = tested on: CAKI-1 renal
XF 498 CNS = tested on: XF 498 CNS
HOP-18 NSCLC = tested on: HOP-18 NSCLC
RXF-631 renal = tested on: RXF-631 renal
BT-549 breast = tested on: BT-549 breast
MDA-N = tested on: MDA-N
P388/ADR leukemia = tested on: P388/ADR leukemia
P388 leukemia = tested on: P388 leukemia
SN12K1 renal = tested on: SN12K1 renal

Compound	TGI (MCF7 breast)	TGI (SR leukemia)	TGI (CAKI-1 renal)	TGI (XF 498 CNS)	TGI (HOP-18 NSCLC)	TGI (BT-549 breast)	also measured
Cc1cc(N2CCCCC2)nc(NCc2cc(Nc3ccnc4cc(Cl)ccc34)ccc2F)n1	1.46 µM	4.99 µM	3.32 µM				GI50 (MCF7 breast): 0.298 µM; GI50 (SR leukemia): 1.94 µM; GI50 (CAKI-1 renal): 1.74 µM
CN(C)C=O.CN(C)C=O.CN1C(C(=O)Nc2ccccn2)=C([O-])c2ccccc2S1(=O)=O.CN1C(C(=O)Nc2ccccn2)=C([O-])c2ccccc2S1(=O)=O.[Cu+2]		> 100 µM		34.4 µM	> 100 µM		GI50 (XF 498 CNS): 18.8 µM; GI50 (HOP-18 NSCLC): > 100 µM; GI50 (RXF-631 renal): 87.4 µM; TGI (RXF-631 renal): > 100 µM
COc1ccc2c(c1)C(=O)c1c-2n(CCCCl)c(=O)c2cc([N+](=O)[O-])ccc12			0.959 µM			> 100 µM	GI50 (MCF7 breast): < 0.01 µM; GI50 (BT-549 breast): 1.56 µM; GI50 (SR leukemia): < 0.0125 µM; GI50 (CAKI-1 renal): 0.242 µM
NS(=O)(=O)c1ccc(C(=O)O)cc1	> 100 µM		> 100 µM			> 100 µM	TGI (MDA-N): > 100 µM
Cc1nc2ccccc2c(=O)n1Nc1ccc(C(=O)O)cc1	> 100 µM		> 100 µM	> 100 µM	> 100 µM		TGI (P388/ADR leukemia): > 100 µM; TGI (P388 leukemia): > 100 µM; TGI (SN12K1 renal): > 100 µM
O=C(O)\C=C/C=C/C=C/C=C/C(=O)O		> 100 µM	> 100 µM		> 100 µM		
O=C1CC(c2ccccc2)NCCCCN2CC(CN1)C(C(O)c1ccccc1)C2=O (centres undefined)	> 100 µM	> 100 µM	> 100 µM			> 100 µM	TGI (MDA-N): > 100 µM
Nc1ccc([As](=O)(O)O)cc1	> 100 µM	> 100 µM	> 100 µM			> 100 µM	TGI (MDA-N): > 100 µM
Cc1cccc(NC(N)=S)c1		> 100 µM		> 100 µM			TGI (RXF-631 renal): > 100 µM
O=C(Nc1ccc(-n2ccc3c(NC(=O)c4ccccc4)ncnc32)cc1)Nc1ccc(Cl)c(C(F)(F)F)c1	3.24 µM	4.76 µM	3.81 µM				GI50 (MCF7 breast): 1.64 µM; GI50 (SR leukemia): 1.74 µM; GI50 (CAKI-1 renal): 1.69 µM
CC1(C)CCc2cc3c(cc2O1)OC(C)(C)CC3=O		> 100 µM	> 100 µM	> 100 µM			
CC(C)(c1ccccc1)c1ccc(Oc2ccc3c(c2)-c2nc-3nc3[nH]c(nc4nc(nc5[nH]c(n2)c2ccc(Oc6ccc(C(C)(C)c7ccccc7)cc6)cc52)-c2cc(Oc5ccc(C(C)(C)c6ccccc6)cc5)ccc2-4)c2ccc(Oc4ccc(C(C)(C)c5ccccc5)cc4)cc32)cc1				> 100 µM			TGI (RXF-631 renal): > 100 µM
CCc1cc(C)cc2[n+]1CC=C2C			> 100 µM		9.88 µM		
